Measured values: PubChem BioAssay (NCI)
≈ marks a conversion by molar mass, not a printed value.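 Cells were grown in 96-well plates and exposed to each compound for 48 hours at five concentrations; endpoints were interpolated linearly between bracketing concentrations, or set to the highest concentration if not reached. GI50 is the concentration that inhibits growth by half. TGI is the concentration that stops growth completely.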

Legend:
Experiment in all cases: NCI tumour cell line growth inhibition, 48 h
SNB-75 CNS = test system: SNB-75 CNS
UACC-62 melanoma = test system: UACC-62 melanoma
RXF 393 renal = test system: RXF 393 renal
UO-31 renal = test system: UO-31 renal
NCI-H460 lung = test system: NCI-H460 lung
NCI-H522 lung = test system: NCI-H522 lung
MOLT-4 leukemia = test system: MOLT-4 leukemia
CCRF-CEM leukemia = test system: CCRF-CEM leukemia
OVCAR-8 ovarian = test system: OVCAR-8 ovarian
HL-60(TB) leukemia = test system: HL-60(TB) leukemia

Row | Structure (SMILES) | GI50 (SNB-75 CNS) | TGI (SNB-75 CNS) | GI50 (UACC-62 melanoma) [µg/mL] | TGI (UACC-62 melanoma) | GI50 (RXF 393 renal) [µg/mL] | TGI (RXF 393 renal) | GI50 (UO-31 renal) [µg/mL] | TGI (UO-31 renal) | GI50 (NCI-H460 lung) [µg/mL] | TGI (NCI-H460 lung) | GI50 (NCI-H522 lung) | TGI (NCI-H522 lung) | GI50 (MOLT-4 leukemia) [µg/mL] | TGI (MOLT-4 leukemia) | GI50 (CCRF-CEM leukemia) [µg/mL] | TGI (CCRF-CEM leukemia) | GI50 (OVCAR-8 ovarian) [µg/mL] | TGI (OVCAR-8 ovarian) | GI50 (HL-60(TB) leukemia) [µg/mL] | TGI (HL-60(TB) leukemia)
1 | NC(N)=Nc1nc2ccccc2[nH]1 | 150 µg/mL | > 150 µg/mL | 36.2 (≈ 207 µM) | > 150 µg/mL | 72.5 (≈ 414 µM) | > 150 µg/mL | 20 (≈ 114 µM) | 107 µg/mL | 36.5 (≈ 209 µM) | > 150 µg/mL | 5.66 µg/mL | 46.5 µg/mL | 5.03 (≈ 28.7 µM) | 37.3 µg/mL | 4.49 (≈ 25.6 µM) | 111 µg/mL | 76.5 (≈ 437 µM) | > 150 µg/mL | 3.87 (≈ 22.1 µM) | 17.2 µg/mL
2 | CP(C)(=S)P(C)(C)=S | – | > 100 µM | – | > 100 µM | – | > 100 µM | – | > 100 µM | – | > 100 µM | – | > 100 µM | – | > 100 µM | – | > 100 µM | – | > 100 µM | – | > 100 µM
3 | C[C@]12CCC(=O)C=C1CC[C@@H]1C2CC[C@]2(C)Nc3c(ncn3-c3ccc(F)cc3)CC12 (stereo partly specified) | – | 77.4 µM | – | 54.4 µM | – | 30.6 µM | – | > 100 µM | – | 57.4 µM | – | 55.1 µM | – | 90.8 µM | – | 82.6 µM | – | > 100 µM | – | > 100 µM
4 | CC1=C2C(O)C(C(C)C(=O)NC(C)C)CCC2(C)C=CC1=O (stereo unspecified) | – | > 100 µM | – | > 100 µM | – | > 100 µM | – | > 100 µM | – | > 100 µM | – | > 100 µM | – | > 100 µM | – | > 100 µM | – | > 100 µM | – | > 100 µM
5 | CC1(C)O[C@@H]2[C@@H]3OC(=O)C[C@@H]3[C@@H](COCc3ccccc3)[C@@H]2O1 | – | > 100 µM | – | > 100 µM | – | > 100 µM | – | > 100 µM | – | > 100 µM | – | > 100 µM | – | > 100 µM | – | > 100 µM | – | > 100 µM | – | > 100 µM
6 | CCOC1SC(SC)=NN1C(=O)C(OC(C)=O)C(OC(C)=O)C(OC(C)=O)C(OC(C)=O)C(=O)N1N=C(SC)SC1OCC (stereo unspecified) | – | > 100 µM | – | > 100 µM | – | > 100 µM | – | > 100 µM | – | > 100 µM | – | > 100 µM | – | > 100 µM | – | > 100 µM | – | > 100 µM | – | > 100 µM
7 | CN(C(=O)c1cccs1)C(=S)N1CCN(c2ccccc2)CC1 | – | > 100 µM | – | > 100 µM | – | > 100 µM | – | > 100 µM | – | > 100 µM | – | > 100 µM | – | > 100 µM | – | > 100 µM | – | > 100 µM | – | > 100 µM
8 | O=C(O)c1cc(Sc2ccc([N+](=O)[O-])c(C(=O)O)c2)ccc1[N+](=O)[O-] | > 100 µM | > 100 µM | – | > 100 µM | – | > 100 µM | – | > 100 µM | – | > 100 µM | > 100 µM | > 100 µM | – | > 100 µM | – | > 100 µM | – | > 100 µM | – | > 100 µM
9 | Cn1cnc([N+](=O)[O-])c1Sc1nc(N)nc2c1ncn2Cc1ccccc1 | – | > 100 µM | – | 31.4 µM | – | 43.7 µM | – | 34.2 µM | – | 34.7 µM | – | 24.1 µM | – | – | – | > 100 µM | – | 72.2 µM | – | 47.7 µM
10 | COc1cc(OC)nc(Nc2c(C#N)c3nc4ccccc4n3c3ccccc23)n1 | – | 37.6 µM | – | > 100 µM | – | 99.2 µM | – | > 100 µM | – | > 100 µM | – | 64 µM | – | > 100 µM | – | > 100 µM | – | > 100 µM | – | > 100 µM
11 | O=C1O[C@H]2[C@@H]3OC(=O)c4cc(O)c(O)c(O)c4-c4c(cc(O)c(O)c4O)C(=O)OC[C@H]2O[C@@H](OC(=O)c2cc(O)c(O)c(O)c2)[C@@H]3OC(=O)c2cc(O)c(O)c3c2[C@@H]2C1=CC(=O)C(O)(O)C2(O)O3 (stereo partly specified) | – | 86.4 µM | – | > 100 µM | – | > 100 µM | – | > 100 µM | – | > 100 µM | – | 82.9 µM | – | 92 µM | – | > 100 µM | – | 40.5 µM | – | > 100 µM
12 | Cc1cc(NCCCCCCNc2cc(C)nc3ccc(Cl)cc23)c2cc(Cl)ccc2n1 | – | 35.5 µM | – | 36 µM | – | 30.6 µM | – | 62.2 µM | – | 29.8 µM | – | 30.7 µM | – | > 100 µM | – | 83.6 µM | – | 39.1 µM | – | 47.8 µM
13 | CC(C)=CCC[C@H](C)[C@H]1CC[C@@H](C)c2cc(O)c(C)cc21 | – | 38.6 µM | – | 27.9 µM | – | 42.2 µM | – | 28.2 µM | – | 33.7 µM | – | 32.4 µM | – | 51 µM | – | 68 µM | – | 35.6 µM | – | 41.7 µM
14 | Cc1cc(-c2nc3cc(F)c(F)cc3s2)ccc1N | – | > 92.9 µM | – | > 100 µM | – | > 100 µM | – | > 100 µM | – | > 100 µM | – | > 100 µM | – | > 100 µM | – | > 100 µM | – | > 100 µM | – | > 100 µM
15 | CC1(C)CC[C@]2(C(=O)O)CC[C@]3(C)C(=CC[C@@H]4[C@@]5(C)CC[C@H](OC6OC(CO)C(O)C(O)C6OC6OC(CO)C(O)C(O)C6O)C(C)(C)[C@@H]5CC[C@]43C)[C@@H]2C1 (stereo partly specified) | – | 36.3 µM | – | 34.2 µM | – | 37.3 µM | – | 35.8 µM | – | 41.5 µM | – | 38 µM | – | 48.3 µM | – | 46.5 µM | – | 35.2 µM | – | 42.8 µM
16 | O=C1OC(c2ccccc2)N/C1=C\c1ccc2c(c1)OCO2 (stereo unspecified) | – | > 100 µM | – | > 100 µM | – | > 100 µM | – | > 100 µM | – | > 100 µM | – | > 100 µM | – | > 100 µM | – | 99.6 µM | – | > 100 µM | – | 0.684 µM
17 | COc1ccc([C@@H]2CC(=O)NCCCCNCCCN2)cc1 | – | > 100 µM | – | > 100 µM | – | > 100 µM | – | > 100 µM | – | > 100 µM | – | > 100 µM | – | > 100 µM | – | > 100 µM | – | > 100 µM | – | > 100 µM
